Measurements published in ChEMBL document CHEMBL5113558, “Discovery of Potent PROTACs for the Potential Treatment of Leukemia” (ACS Med Chem Lett, 2022).
pEC50: −log10 of the molar value.

Biological target: Protein cereblon/Tyrosine-protein kinase JAK2 (Homo sapiens, UniProt O60674+Q96SW2)
Assay: Protac activity at E3 ubiquitin ligase/JAK2 in human MHH-CALL-4 cells assessed as E3 ubiquitin ligase mediated JAK2 degradation incubated for 32 hrs by immunoblotting analysis
Format: cell-based, MHHCALL4

Protein cereblon/Tyrosine-protein kinase JAK2, sequence (O60674 whole entry): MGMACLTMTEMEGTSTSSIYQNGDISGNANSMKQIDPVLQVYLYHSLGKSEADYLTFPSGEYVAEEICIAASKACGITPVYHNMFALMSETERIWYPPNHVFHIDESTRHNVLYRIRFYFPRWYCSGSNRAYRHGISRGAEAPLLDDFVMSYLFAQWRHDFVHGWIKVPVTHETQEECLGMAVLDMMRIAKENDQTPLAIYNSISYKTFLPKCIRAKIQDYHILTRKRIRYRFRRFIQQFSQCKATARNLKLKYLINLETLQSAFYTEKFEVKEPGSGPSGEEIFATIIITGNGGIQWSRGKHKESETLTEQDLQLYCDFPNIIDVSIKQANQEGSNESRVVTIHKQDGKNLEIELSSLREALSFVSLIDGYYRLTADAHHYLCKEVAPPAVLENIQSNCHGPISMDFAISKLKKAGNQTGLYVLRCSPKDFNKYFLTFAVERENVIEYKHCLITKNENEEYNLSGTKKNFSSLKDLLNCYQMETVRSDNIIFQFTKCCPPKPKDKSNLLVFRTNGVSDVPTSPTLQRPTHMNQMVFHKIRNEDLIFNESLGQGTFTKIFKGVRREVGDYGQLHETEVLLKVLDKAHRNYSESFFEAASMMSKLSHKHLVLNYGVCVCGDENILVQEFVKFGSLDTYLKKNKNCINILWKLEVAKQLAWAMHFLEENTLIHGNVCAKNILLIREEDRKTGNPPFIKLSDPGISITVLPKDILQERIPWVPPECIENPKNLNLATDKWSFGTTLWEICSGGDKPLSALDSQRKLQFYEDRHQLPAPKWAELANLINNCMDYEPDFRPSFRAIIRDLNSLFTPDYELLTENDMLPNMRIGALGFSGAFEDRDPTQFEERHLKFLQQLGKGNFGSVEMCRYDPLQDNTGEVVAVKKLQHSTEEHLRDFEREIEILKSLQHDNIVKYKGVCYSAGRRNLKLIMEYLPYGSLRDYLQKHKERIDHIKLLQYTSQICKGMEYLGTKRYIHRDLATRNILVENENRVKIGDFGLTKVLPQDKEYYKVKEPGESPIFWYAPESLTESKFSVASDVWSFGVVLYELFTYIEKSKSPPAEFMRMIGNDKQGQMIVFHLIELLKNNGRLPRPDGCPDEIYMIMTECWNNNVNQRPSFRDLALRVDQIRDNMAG
Protein cereblon/Tyrosine-protein kinase JAK2, sequence (Q96SW2 whole entry): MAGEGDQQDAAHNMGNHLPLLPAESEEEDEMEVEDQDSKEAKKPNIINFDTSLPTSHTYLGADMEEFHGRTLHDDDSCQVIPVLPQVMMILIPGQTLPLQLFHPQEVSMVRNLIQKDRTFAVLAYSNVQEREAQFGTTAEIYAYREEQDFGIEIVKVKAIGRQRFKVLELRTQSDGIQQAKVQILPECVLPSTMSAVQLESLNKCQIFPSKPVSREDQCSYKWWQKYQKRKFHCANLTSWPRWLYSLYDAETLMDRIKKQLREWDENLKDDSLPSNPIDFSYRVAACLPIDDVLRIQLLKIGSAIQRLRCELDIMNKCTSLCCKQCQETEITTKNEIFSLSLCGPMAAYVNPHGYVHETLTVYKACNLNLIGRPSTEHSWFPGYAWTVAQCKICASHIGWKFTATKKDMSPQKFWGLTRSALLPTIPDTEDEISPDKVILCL

pEC50: 9.30
Structure (SMILES): CCCn1cc(-c2nc(Nc3ccc(C(=O)NCCCCCc4cccc5c4CN(C4CCC(=O)NC4=O)C5=O)cc3)nc3[nH]ccc23)cn1 (stereo unspecified)
